From publication PMC8645336, “Benchmarking a highly selective USP30 inhibitor for enhancement of mitophagy and pexophagy” (Life Science Alliance, 2021) come the findings set out here.

One assay addresses T1, USP19 (Homo sapiens, UniProt O94966).
T1 sequence (O94966 1-1318): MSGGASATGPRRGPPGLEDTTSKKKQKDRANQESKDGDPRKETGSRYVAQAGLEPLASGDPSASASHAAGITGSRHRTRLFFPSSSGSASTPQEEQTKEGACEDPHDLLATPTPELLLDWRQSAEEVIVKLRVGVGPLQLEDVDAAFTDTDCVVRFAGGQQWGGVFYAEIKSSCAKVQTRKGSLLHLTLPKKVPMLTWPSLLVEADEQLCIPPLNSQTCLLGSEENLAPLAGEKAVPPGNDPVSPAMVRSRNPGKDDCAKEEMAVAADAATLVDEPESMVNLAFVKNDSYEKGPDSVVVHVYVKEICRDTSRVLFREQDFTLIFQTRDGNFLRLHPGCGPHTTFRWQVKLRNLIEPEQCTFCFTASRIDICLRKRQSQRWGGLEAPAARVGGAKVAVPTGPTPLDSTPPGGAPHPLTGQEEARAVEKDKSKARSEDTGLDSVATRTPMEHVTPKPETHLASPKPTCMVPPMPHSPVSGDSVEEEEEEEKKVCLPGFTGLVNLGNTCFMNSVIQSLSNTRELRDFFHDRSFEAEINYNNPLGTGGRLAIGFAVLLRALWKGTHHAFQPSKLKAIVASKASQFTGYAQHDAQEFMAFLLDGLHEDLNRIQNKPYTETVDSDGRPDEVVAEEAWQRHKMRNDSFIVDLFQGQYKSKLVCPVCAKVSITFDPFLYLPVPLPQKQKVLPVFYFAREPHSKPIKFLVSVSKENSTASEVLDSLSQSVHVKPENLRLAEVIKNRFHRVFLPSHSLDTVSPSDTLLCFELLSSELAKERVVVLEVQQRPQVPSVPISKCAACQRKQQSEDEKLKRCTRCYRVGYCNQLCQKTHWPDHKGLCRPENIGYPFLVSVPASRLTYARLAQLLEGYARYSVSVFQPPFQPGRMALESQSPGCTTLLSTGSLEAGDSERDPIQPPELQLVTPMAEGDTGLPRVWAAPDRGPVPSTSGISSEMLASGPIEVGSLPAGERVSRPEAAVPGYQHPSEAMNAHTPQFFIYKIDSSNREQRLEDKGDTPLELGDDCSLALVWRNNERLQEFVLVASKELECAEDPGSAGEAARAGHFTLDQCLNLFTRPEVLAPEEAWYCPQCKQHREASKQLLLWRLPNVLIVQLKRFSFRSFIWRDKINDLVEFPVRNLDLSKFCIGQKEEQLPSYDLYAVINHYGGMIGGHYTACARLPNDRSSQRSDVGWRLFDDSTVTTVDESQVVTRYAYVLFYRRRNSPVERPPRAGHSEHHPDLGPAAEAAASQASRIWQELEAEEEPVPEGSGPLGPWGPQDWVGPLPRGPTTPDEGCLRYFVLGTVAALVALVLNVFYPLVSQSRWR
Nature of the assay: biochemical. Also noted: Ubiquigent DUB profiler selectivity panel, remaining enzyme activity as % of control. Particulars: read-out: % of control remaining. In a few lines: (§1)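 In YFP-PRKN-overexpressing hTERT-RPE1 cells, 1 h antimycin A plus oligomycin A (1 μM each) with CMPD-39, then Western blot of TOMM20 ubiquitylation. Target engagement: 2 h compound, then 10 min HA-Ub-PA at 37°C, read as USP30 shift. DUB panel (>40 enzymes) screened at 1-100 μM.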

For a further assay, the target named is USP1/UAF1 (Homo sapiens, UniProt O94782). Nature of the assay: biochemical. Particulars: read-out: % of control remaining. Also on record: Ubiquigent DUB profiler selectivity panel, remaining enzyme activity as % of control. In a few lines:
as §1

Sequence of USP1/UAF1 (O94782 whole entry): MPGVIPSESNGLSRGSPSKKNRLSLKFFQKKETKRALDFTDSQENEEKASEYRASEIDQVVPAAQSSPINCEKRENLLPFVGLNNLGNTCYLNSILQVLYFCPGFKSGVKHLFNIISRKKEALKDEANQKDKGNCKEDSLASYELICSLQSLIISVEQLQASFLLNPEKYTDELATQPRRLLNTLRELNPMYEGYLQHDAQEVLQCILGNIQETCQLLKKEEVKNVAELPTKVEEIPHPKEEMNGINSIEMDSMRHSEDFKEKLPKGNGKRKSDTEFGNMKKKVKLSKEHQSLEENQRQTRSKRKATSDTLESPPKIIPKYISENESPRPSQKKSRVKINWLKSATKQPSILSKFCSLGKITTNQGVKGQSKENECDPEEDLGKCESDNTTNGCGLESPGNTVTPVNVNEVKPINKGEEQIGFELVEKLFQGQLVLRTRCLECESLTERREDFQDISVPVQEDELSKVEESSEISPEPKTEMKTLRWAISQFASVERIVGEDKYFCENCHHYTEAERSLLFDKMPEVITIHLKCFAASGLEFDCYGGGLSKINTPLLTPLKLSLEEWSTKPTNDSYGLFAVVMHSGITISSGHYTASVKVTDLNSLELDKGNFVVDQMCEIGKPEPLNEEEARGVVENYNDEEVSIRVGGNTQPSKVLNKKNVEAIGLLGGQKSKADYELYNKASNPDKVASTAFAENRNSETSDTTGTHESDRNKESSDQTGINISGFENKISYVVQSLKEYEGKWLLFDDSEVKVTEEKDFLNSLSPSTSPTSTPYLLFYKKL
Sequence of USP1/UAF1 (Q8TAF3 whole entry partner): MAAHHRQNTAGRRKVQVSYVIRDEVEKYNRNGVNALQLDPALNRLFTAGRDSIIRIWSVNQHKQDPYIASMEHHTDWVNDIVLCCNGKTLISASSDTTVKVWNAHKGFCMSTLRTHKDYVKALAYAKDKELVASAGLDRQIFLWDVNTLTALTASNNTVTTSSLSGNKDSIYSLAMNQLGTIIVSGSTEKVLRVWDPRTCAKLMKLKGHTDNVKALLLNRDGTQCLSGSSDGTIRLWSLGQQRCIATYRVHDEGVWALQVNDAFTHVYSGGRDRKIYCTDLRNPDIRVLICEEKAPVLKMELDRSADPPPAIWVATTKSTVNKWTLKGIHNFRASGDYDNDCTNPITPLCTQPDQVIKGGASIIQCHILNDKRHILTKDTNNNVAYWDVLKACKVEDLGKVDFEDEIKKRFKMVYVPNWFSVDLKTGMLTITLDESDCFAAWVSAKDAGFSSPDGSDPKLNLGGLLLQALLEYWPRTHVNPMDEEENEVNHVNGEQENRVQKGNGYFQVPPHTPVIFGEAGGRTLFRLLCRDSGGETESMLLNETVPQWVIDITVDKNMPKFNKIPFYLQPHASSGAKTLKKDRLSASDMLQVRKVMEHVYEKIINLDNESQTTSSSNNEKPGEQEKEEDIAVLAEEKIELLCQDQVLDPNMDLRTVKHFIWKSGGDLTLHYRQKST

As to `CC(C)(C)NS(=O)(=O)c1ccc(NC(=O)[C@H](Cc2ccccc2)NC(=O)c2ccc(F)cc2)cc1` [compound 39, CMPD-39], on USP19, the remaining activity at 1 µM was 107%, the remaining activity at 10 µM was determined as 99.7% and the remaining activity at 100 µM was found to be 99.8%. Further, at USP1/UAF1, the remaining activity at 1 µM worked out at 98.6%, the remaining activity at 10 µM was 95.6% and the remaining activity at 100 µM came to 97.4%.
